The values that follow come from US5686421A, “Hydantoin derivates” (Hoechst Aktiengesellschaft, priority 1990, dated 1997).

What is called IC50 is the point on the concentration scale where inhibition reaches its midpoint.

Where two headings read alike, the source gives them in different places.

The assay has as its system human GFP (gel-filtered platelets). In words: Inhibition of platelet aggregation, human gel-filtered platelets stimulated with ADP or thrombin. The assay is classed as cell-based. From the text: The compounds are particularly tested for their inhibitory action on the aggregation of blood platelets and the adhesion of fibrinogen to blood platelets. Gel-filtered blood platelets from donated human blood are used and are activated with ADP or thrombin.
Inhibition of platelet aggregation to human GFP (gel-filtered platelets) stimulated with adenosine diphosphate (ADP) or thrombin (THR) (Marguerie, Plow and Edgington, J. Biol. Chem. 254 (1979) 5357-5363)

Setting [1] is: human GFP stimulated with adenosine diphosphate (ADP), read-out: IC50 (μM) ADP.
[2] abbreviates: human GFP stimulated with thrombin (THR), read-out: IC50 (μM) THR.

Regarding `N=C(N)NCCC[C@H]1NC(=O)N(CC(=O)N[C@@H](CC(=O)O)C(N)=O)C1=O` [[5-(R)-(3-guanidino-propyl)-2,4-dioxo-imidazolidin-3-yl]acetyl-L-Asp-amide], the IC50 runs as follows: under setting [1], 20 µM; under setting [2], 15 µM.
As for `NC(=O)[C@H](CC(=O)O)NC(=O)CN1C(=O)N[C@@H](CCCN=C(N)N)C1=O` [[5-(S)-(3-guanidinopropyl)-2,4-dioxo-imidazolidin-3-yl]acetyl-Asp-amide], the IC50 is, setting by setting: under setting [1], 40 µM; under setting [2], 40 µM.
For `N=C(N)NCCC[C@H](N)C(=O)NCC(=O)N[C@@H](CC(=O)O)C(N)=O` [HArgGlyAspNH2], the IC50 came to 500 µM under setting [1] and 200 µM under setting [2].
For `N=C(N)NCCC[C@@H](N)C(=O)NCC(=O)N[C@@H](CC(=O)O)C(N)=O` [HDArgGlyAspNH2], in that order: 500 µM and 100 µM.
For `COc1ccc(C(NC(=O)[C@H](CC(=O)O)NC(=O)CN2C(=O)N[C@@H](CCCN=C(N)N)C2=O)c2ccc(OC)cc2)cc1` [[5-(S)-(3-guanidino-propyl)-2,4-dioxo-imidazolidin-3-yl]acetyl-Asp 4,4'-dimethoxybenzhydrylamide], in that order: 10 µM and 4 µM.
For `COc1ccc(C(NC(=O)[C@H](CC(=O)O)NC(=O)CN2C(=O)N[C@H](CCCN=C(N)N)C2=O)c2ccc(OC)cc2)cc1` [[5-(R)-(3-guanidino-propyl)-2,4-dioxo-imidazolin-3-yl]acetyl Asp 4,4'-dimethoxybenzhydrylamide], in that order: 4 µM and 3 µM.
Consider ZDArgGlyAspNH2, for which the IC50 was 100 µM under setting [1] and 80 µM under setting [2].
For the compound ZDArgGlyAspNHMbh, the IC50 reads like this: under setting [1], 20 µM; under setting [2], 20 µM.
